Source: ChEMBL document CHEMBL1150183, “Spermine alkaloids from Schweinfurthia papilionacea” (J Nat Prod, 1990)

Key:
Format in all cases: toxicity, organism-based
Salmonella typhimurium [1] = experiment: Mutagenic activity in Salmonella Typhimurium TA97a assessed as number of spontaneous revertants at 500 ug/plate by Ames test in absence of rat liver microsomal S9 fraction; details: salmonella enterica subsp. enterica serovar typhimurium
Salmonella typhimurium [2] = experiment: Mutagenic activity in Salmonella Typhimurium TA98 assessed as number of spontaneous revertants at 500 ug/plate by Ames test in absence of rat liver microsomal S9 fraction; details: salmonella enterica subsp. enterica serovar typhimurium
Salmonella typhimurium [3] = experiment: Mutagenic activity in Salmonella Typhimurium TA98 assessed as number of spontaneous revertants at 500 ug/plate by Ames test in presence of rat liver microsomal S9 fraction; details: salmonella enterica subsp. enterica serovar typhimurium, microsomes
Salmonella typhimurium [4] = experiment: Mutagenic activity in Salmonella Typhimurium TA100 assessed as number of spontaneous revertants at 500 ug/plate by Ames test in absence of rat liver microsomal S9 fraction; details: salmonella enterica subsp. enterica serovar typhimurium
Salmonella typhimurium [5] = experiment: Mutagenic activity in Salmonella Typhimurium TA100 assessed as number of spontaneous revertants at 500 ug/plate by Ames test in presence of rat liver microsomal S9 fraction; details: salmonella enterica subsp. enterica serovar typhimurium, microsomes
Salmonella typhimurium [6] = experiment: Mutagenic activity in Salmonella Typhimurium TA98 assessed as increase in spontaneous revertants by Ames test relative to control spontaneous reversion; details: salmonella enterica subsp. enterica serovar typhimurium
Salmonella typhimurium [7] = experiment: Mutagenic activity in Salmonella Typhimurium TA100 assessed as increase in spontaneous revertants by Ames test relative to control spontaneous reversion; details: salmonella enterica subsp. enterica serovar typhimurium

## O=C1C[C@H]2NCCCNCCCCN(CCCN1)C(=O)[C@@H]1c3cc2ccc3O[C@H]1c1ccc(O)cc1
Salmonella typhimurium [1]
  Activity: 0
Salmonella typhimurium [2]
  Activity: 81
Salmonella typhimurium [3]
  Activity: 778
Salmonella typhimurium [4]
  Activity: 143
Salmonella typhimurium [5]
  Activity: 461
Salmonella typhimurium [6]
  fold change (FC): 22
Salmonella typhimurium [7]
  fold change (FC): 4
